Target: recombinant full length HPK-1 enzyme (Homo sapiens (Human), UniProt Q92918)
Experiment: HPK-1 biochemical enzyme assay (ADP-Glo kinase inhibition)
Details: recombinant full length HPK-1 6.8 nM, 10 μM ATP, 12.5 μM MBP, 30 mins at 25° C.
Method in brief: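 Recombinant full-length human HPK-1 (6.8 nM) incubated 30 min at 25° C. with 10 μM ATP and 12.5 μM swine MBP in 40 mM Tris pH 7.4, 20 mM MgCl2, 50 μM DTT, 0.1 mg/mL BSA. ADP measured by ADP-Glo; IC50 from 10 concentrations, normalized to no-enzyme and vehicle controls.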

recombinant full length HPK-1 enzyme, sequence (Q92918 whole entry, species assumed): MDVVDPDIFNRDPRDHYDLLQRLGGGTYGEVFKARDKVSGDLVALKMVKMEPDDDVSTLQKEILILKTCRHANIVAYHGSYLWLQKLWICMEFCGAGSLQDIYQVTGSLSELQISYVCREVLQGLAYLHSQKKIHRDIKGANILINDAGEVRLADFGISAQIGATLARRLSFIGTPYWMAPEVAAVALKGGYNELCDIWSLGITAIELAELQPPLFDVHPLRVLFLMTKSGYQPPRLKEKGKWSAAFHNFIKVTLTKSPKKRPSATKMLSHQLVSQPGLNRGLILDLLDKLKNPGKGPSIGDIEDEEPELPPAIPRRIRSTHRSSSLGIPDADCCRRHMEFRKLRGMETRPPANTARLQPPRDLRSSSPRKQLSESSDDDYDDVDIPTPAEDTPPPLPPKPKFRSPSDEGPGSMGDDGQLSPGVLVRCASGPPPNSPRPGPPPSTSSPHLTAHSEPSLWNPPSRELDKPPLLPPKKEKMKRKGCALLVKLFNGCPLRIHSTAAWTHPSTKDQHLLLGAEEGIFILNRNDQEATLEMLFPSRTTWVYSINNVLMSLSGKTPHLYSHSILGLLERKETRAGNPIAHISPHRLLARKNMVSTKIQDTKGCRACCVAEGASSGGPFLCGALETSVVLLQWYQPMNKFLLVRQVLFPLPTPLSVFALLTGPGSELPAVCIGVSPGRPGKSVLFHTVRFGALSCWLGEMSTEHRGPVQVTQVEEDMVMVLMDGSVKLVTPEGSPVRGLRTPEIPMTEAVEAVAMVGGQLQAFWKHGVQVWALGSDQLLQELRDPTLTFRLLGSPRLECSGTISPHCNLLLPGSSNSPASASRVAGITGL

CO[C@@H](C)C(=O)N1CCN(c2ccc(NC(=O)c3c(Nc4cnc5c(c4C)NCCO5)cc[nH]c3=O)cc2)CC1 [Example 350, (S)-N-(4-(4-(2-methoxypropanoyl)piperazin-1-yl)phenyl)-4-((8-methyl-2,3-dihydro-1H-pyrido[2,3-b][1,4]oxazin-7-yl)amino)-2-oxo-1,2-dihydropyridine-3-carboxamide] and Cc1c(Nc2cc[nH]c(=O)c2C(=O)Nc2ccc(N3CCN(C(=O)C4(C)CC4)CC3)cc2)cnc2c1NCCO2 [Example 355, 4-((8-methyl-2,3-dihydro-1H-pyrido[2,3-b][1,4]oxazin-7-yl)amino)-N-(4-(4-(1-methylcyclopropane-1-carbonyl)piperazin-1-yl)phenyl)-2-oxo-1,2-dihydropyridine-3-carboxamide] cannot be ordered by IC50: at most 10 nM for the first, at most 10 nM for the second.

Compared with Cc1c(Nc2cc[nH]c(=O)c2C(=O)Nc2ccc(C3CCCN(C)C3)cc2)cnc2c1NCCO2 (centres unmarked) [Example 214, 4-((8-methyl-2,3-dihydro-1H-pyrido[2,3-b][1,4]oxazin-7-yl)amino)-N-(4-(1-methylpiperidin-3-yl)phenyl)-2-oxo-1,2-dihydropyridine-3-carboxamide], Cc1c(Nc2cc[nH]c(=O)c2C(=O)Nc2ccc(C3CCCCC3)cc2)cnc2c1NCCO2 [Example 330, N-(4-cyclohexylphenyl)-4-((8-methyl-2,3-dihydro-1H-pyrido[2,3-b][1,4]oxazin-7-yl)amino)-2-oxo-1,2-dihydropyridine-3-carboxamide] is higher in IC50: at most 10 nM for the first, 100 to 1000 nM for the second.

Cc1c(Nc2cc[nH]c(=O)c2C(=O)Nc2ccc(N3CCC(C(=O)O)CC3)cc2)cnc2c1NCCO2 [Example 216, 1-(4-(4-((8-methyl-2,3-dihydro-1H-pyrido[2,3-b][1,4]oxazin-7-yl)amino)-2-oxo-1,2-dihydropyridine-3-carboxamido)phenyl)piperidine-4-carboxylic acid] and Cc1c(Nc2cc[nH]c(=O)c2C(=O)Nc2ccc(N3CCN(C#N)CC3)cc2)cnc2c1NCCO2 [Example 352, N-(4-(4-cyanopiperazin-1-yl)phenyl)-4-((8-methyl-2,3-dihydro-1H-pyrido[2,3-b][1,4]oxazin-7-yl)amino)-2-oxo-1,2-dihydropyridine-3-carboxamide] fall in the same range of IC50: 10 to 100 nM for the first, 10 to 100 nM for the second.

Cc1c(Nc2cc[nH]c(=O)c2C(=O)Nc2ccc(N3CCN(C(=O)C(C)C)[C@H](C)C3)cc2)cnc2c1NCCO2 [Example 349, (R)-N-(4-(4-isobutyryl-3-methylpiperazin-1-yl)phenyl)-4-((8-methyl-2,3-dihydro-1H-pyrido[2,3-b][1,4]oxazin-7-yl)amino)-2-oxo-1,2-dihydropyridine-3-carboxamide] and CCC(=O)N1CCN(c2ccc(NC(=O)c3c(Nc4cnc5c(c4C)NCCO5)cc[nH]c3=O)cc2)C[C@H]1C [Example 347, (R)-4-((8-methyl-2,3-dihydro-1H-pyrido[2,3-b][1,4]oxazin-7-yl)amino)-N-(4-(3-methyl-4-propionylpiperazin-1-yl)phenyl)-2-oxo-1,2-dihydropyridine-3-carboxamide] cannot be ordered by IC50: at most 10 nM for the first, at most 10 nM for the second.

Cc1c(Nc2cc[nH]c(=O)c2C(=O)Nc2ccc(N3CCN(C)C[C@H]3C)cc2)cnc2c1NCCO2 [Example 241, (R)-N-(4-(2,4-dimethylpiperazin-1-yl)phenyl)-4-((8-methyl-2,3-dihydro-1H-pyrido[2,3-b][1,4]oxazin-7-yl)amino)-2-oxo-1,2-dihydropyridine-3-carboxamide] and Cc1c(Nc2cc[nH]c(=O)c2C(=O)Nc2ccc(N3CCN4C(=O)N(C)CC4C3)cc2)cnc2c1NCCO2 (centres unmarked) [Example 377, 4-((8-methyl-2,3-dihydro-1H-pyrido[2,3-b][1,4]oxazin-7-yl)amino)-N-(4-(2-methyl-3-oxohexahydroimidazo[1,5-a]pyrazin-7(1H)-yl)phenyl)-2-oxo-1,2-dihydropyridine-3-carboxamide] cannot be ordered by IC50: at most 10 nM for the first, at most 10 nM for the second.

CCC(=O)N1CCN(c2ccc(NC(=O)c3c(Nc4cnc5c(c4C)NCC(C)O5)cc[nH]c3=O)cc2Cl)CC1 (centres unmarked) [Example 313, N-(3-chloro-4-(4-propionylpiperazin-1-yl)phenyl)-4-((3,8-dimethyl-2,3-dihydro-1H-pyrido[2,3-b][1,4]oxazin-7-yl)amino)-2-oxo-1,2-dihydropyridine-3-carboxamide] and Cc1c(Nc2cc[nH]c(=O)c2C(=O)Nc2ccc(N3CCN(CCO)CC3)cc2)cnc2c1NCC(C)O2 (centres unmarked) [Example 156, 4-((3,8-dimethyl-2,3-dihydro-1H-pyrido[2,3-b][1,4]oxazin-7-yl)amino)-N-(4-(4-(2-hydroxyethyl)piperazin-1-yl)phenyl)-2-oxo-1,2-dihydropyridine-3-carboxamide] fall in the same range of IC50: 10 to 100 nM for the first, 10 to 100 nM for the second.

Cc1c(Nc2cc[nH]c(=O)c2C(=O)Nc2ccc(N3CCN(C(C)C)CC3)cc2)cnc2c1NCC(C)(C)O2 [Example 177, N-(4-(4-isopropylpiperazin-1-yl)phenyl)-2-oxo-4-((3,3,8-trimethyl-2,3-dihydro-1H-pyrido[2,3-b][1,4]oxazin-7-yl)amino)-1,2-dihydropyridine-3-carboxamide] and CCN1CCN(c2ccc(NC(=O)c3c(Nc4cnc5c(c4C)NCCO5)cc[nH]c3=O)cc2)CC1 [Example 136, N-(4-(4-ethylpiperazin-1-yl)phenyl)-4-((8-methyl-2,3-dihydro-1H-pyrido[2,3-b][1,4]oxazin-7-yl)amino)-2-oxo-1,2-dihydropyridine-3-carboxamide] cannot be ordered by IC50: at most 10 nM for the first, at most 10 nM for the second.

Cc1c(Nc2cc[nH]c(=O)c2C(=O)Nc2ccc(-c3cccnc3)cc2)cnc2c1NCCO2 [Example 151, 4-((8-methyl-2,3-dihydro-1H-pyrido[2,3-b][1,4]oxazin-7-yl)amino)-2-oxo-N-(4-(pyridin-3-yl)phenyl)-1,2-dihydropyridine-3-carboxamide] and Cc1c(Nc2cc[nH]c(=O)c2C(=O)Nc2ccc(-c3ccnn3C(C)C)cc2)cnc2c1NCCO2 [Example 271, N-(4-(1-isopropyl-1H-pyrazol-5-yl)phenyl)-4-((8-methyl-2,3-dihydro-1H-pyrido[2,3-b][1,4]oxazin-7-yl)amino)-2-oxo-1,2-dihydropyridine-3-carboxamide] fall in the same range of IC50: 10 to 100 nM for the first, 10 to 100 nM for the second.

COc1ncc(C(C)(C)O)c2cc(NC(=O)c3c(Nc4cnc5c(c4C)NCCO5)cc[nH]c3=O)ccc12 [Example 396, N-(4-(2-Hydroxypropan-2-yl)-1-methoxyisoquinolin-6-yl)-4-((8-methyl-2,3-dihydro-1H-pyrido[2,3-b][1,4]oxazin-7-yl)amino)-2-oxo-1,2-dihydropyridine-3-carboxamide] and Cc1c(Nc2cc[nH]c(=O)c2C(=O)Nc2ccc3ncc(O)nc3c2)cnc2c1NCCO2 [Example 273, N-(3-hydroxyquinoxalin-6-yl)-4-((8-methyl-2,3-dihydro-1H-pyrido[2,3-b][1,4]oxazin-7-yl)amino)-2-oxo-1,2-dihydropyridine-3-carboxamide] fall in the same range of IC50: 100 to 1000 nM for the first, 100 to 1000 nM for the second.

Cc1c(Nc2cc[nH]c(=O)c2C(=O)Nc2ccc(N3CCN(C(=O)c4ccnn4C)CC3)cc2)cnc2c1NCCO2 [Example 316, N-(4-(4-(1-methyl-1H-pyrazole-5-carbonyl)piperazin-1-yl)phenyl)-4-((8-methyl-2,3-dihydro-1H-pyrido[2,3-b][1,4]oxazin-7-yl)amino)-2-oxo-1,2-dihydropyridine-3-carboxamide] and Cc1c(Nc2cc[nH]c(=O)c2C(=O)Nc2ccc(N3CCN(c4cncnc4)CC3)cc2)cnc2c1NCCO2 [Example 338, 4-((8-methyl-2,3-dihydro-1H-pyrido[2,3-b][1,4]oxazin-7-yl)amino)-2-oxo-N-(4-(4-(pyrimidin-5-yl)piperazin-1-yl)phenyl)-1,2-dihydropyridine-3-carboxamide] fall in the same range of IC50: 10 to 100 nM for the first, 10 to 100 nM for the second.

Cc1c(Nc2cc[nH]c(=O)c2C(=O)Nc2ccc(N3CCC(N(C)C(=O)C(C)C)C3)cc2)cnc2c1NCCO2 (centres unmarked) [Example 381, 4-((8-methyl-2,3-dihydro-1H-pyrido[2,3-b][1,4]oxazin-7-yl)amino)-N-(4-(3-(N-methylisobutyramido)pyrrolidin-1-yl)phenyl)-2-oxo-1,2-dihydropyridine-3-carboxamide] and Cc1c(Nc2cc[nH]c(=O)c2C(=O)Nc2ccc(N3CCN4CCC[C@H]4C3)cc2)cnc2c1NCCO2 [Example 328, (S)-N-(4-(hexahydropyrrolo[1,2-a]pyrazin-2(1H)-yl)phenyl)-4-((8-methyl-2,3-dihydro-1H-pyrido[2,3-b][1,4]oxazin-7-yl)amino)-2-oxo-1,2-dihydropyridine-3-carboxamide] cannot be ordered by IC50: 10 to 100 nM for the first, at most 10 nM for the second.

CNc1cc(NC(=O)c2c(Nc3cnc4c(c3C)NCCO4)cc[nH]c2=O)ccc1N1CCN(C)CC1 [Example 295, 4-((8-methyl-2,3-dihydro-1H-pyrido[2,3-b][1,4]oxazin-7-yl)amino)-N-(3-(methylamino)-4-(4-methylpiperazin-1-yl)phenyl)-2-oxo-1,2-dihydropyridine-3-carboxamide] and Cc1c(Nc2cc[nH]c(=O)c2C(=O)Nc2ccc(CN3CCN(C)CC3)cc2)cnc2c1NCCO2 [Example 206, 4-((8-methyl-2,3-dihydro-1H-pyrido[2,3-b][1,4]oxazin-7-yl)amino)-N-(4-((4-methylpiperazin-1-yl)methyl)phenyl)-2-oxo-1,2-dihydropyridine-3-carboxamide] fall in the same range of IC50: 10 to 100 nM for the first, 10 to 100 nM for the second.

First: CN1CCN(c2ccc(NC(=O)c3c(Nc4cnc5c(c4C#N)NCCO5)cc[nH]c3=O)cc2)CC1 [Example 299, 4-((8-cyano-2,3-dihydro-1H-pyrido[2,3-b][1,4]oxazin-7-yl)amino)-N-(4-(4-methylpiperazin-1-yl)phenyl)-2-oxo-1,2-dihydropyridine-3-carboxamide]
Second: Cc1c(Nc2cc[nH]c(=O)c2C(=O)Nc2cnc(-n3nccn3)c(Cl)c2)cnc2c1NCCO2 [Example 229, N-(5-chloro-6-(2H-1,2,3-triazol-2-yl)pyridin-3-yl)-4-((8-methyl-2,3-dihydro-1H-pyrido[2,3-b][1,4]oxazin-7-yl)amino)-2-oxo-1,2-dihydropyridine-3-carboxamide]
The IC50 of the first is lower: 10 to 100 nM for the first, 100 to 1000 nM for the second.
